Test results taken from ChEMBL document CHEMBL1201862, “PubChem BioAssay data set” (2004).
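Compound exposure: 48 hours, 5 concentrations, 96-well plates. GI50 is the concentration that inhibits growth by half.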 Active and inactive are the calls of the source. Cut-off read from the data, not from the text of the source: active = GI50 up to about 1.1 µM and inactive = higher.

Columns and labels:
Experiment in all cases: NCI-60 cell line screen, 48 h
SF-268 = test system: SF-268
M14 = test system: M14
786-0 = test system: 786-0
NCI-H522 = test system: NCI-H522
NCI-H23 = test system: NCI-H23
HOP-62 = test system: HOP-62
KM12 = test system: KM12
A498 = test system: A498
HCT-116 = test system: HCT-116
NCI-H226 = test system: NCI-H226
SK-OV-3 = test system: SK-OV-3
T47D = test system: T47D
A549 = test system: A549
SN12C = test system: SN12C
LOX IMVI = test system: LOX IMVI
Malme-3M = test system: Malme-3M
HL-60 = test system: HL-60
CCRF-CEM = test system: CCRF-CEM
HOP-92 = test system: HOP-92

Row | SMILES | GI50 (SF-268) | GI50 (M14) | GI50 (786-0) | GI50 (NCI-H522) | GI50 (NCI-H23) | GI50 (HOP-62) | GI50 (KM12) | GI50 (A498) | GI50 (HCT-116) | GI50 (NCI-H226) | GI50 (SK-OV-3) | GI50 (T47D) | GI50 (A549) | GI50 (SN12C) | GI50 (LOX IMVI) | GI50 (Malme-3M) | GI50 (HL-60) | GI50 (CCRF-CEM) | GI50 (HOP-92)
1 | CSc1c([S+](C)[O-])c2ccccc2n1C (configuration not stated) | > 100 µM (inactive) | > 100 µM (inactive) | > 100 µM (inactive) | 0.0142 µM (active) | > 100 µM (inactive) | > 100 µM (inactive) | > 100 µM (inactive) | > 100 µM (inactive) | > 100 µM (inactive) | > 100 µM (inactive) | > 100 µM (inactive) | > 100 µM (inactive) | > 100 µM (inactive) | > 100 µM (inactive) | > 100 µM (inactive) | > 100 µM (inactive) | > 100 µM (inactive) | > 100 µM (inactive) | 
2 | COC(=O)[C@]12CSC[C@H]1C[C@H](c1ccccc1OC)N2 | > 100 µM (inactive) | > 100 µM (inactive) | > 100 µM (inactive) | > 100 µM (inactive) | > 100 µM (inactive) | > 100 µM (inactive) | > 100 µM (inactive) | > 100 µM (inactive) | > 100 µM (inactive) | > 100 µM (inactive) | > 100 µM (inactive) | > 100 µM (inactive) | > 100 µM (inactive) | > 100 µM (inactive) | > 100 µM (inactive) | > 100 µM (inactive) |  | > 100 µM (inactive) | 
3 | NC(=O)N/N=C(\Cc1nc2ccc(Cl)cc2nc1O)C(=O)Nc1ccc(Cl)cc1Cl | > 100 µM (inactive) | > 100 µM (inactive) | > 100 µM (inactive) | > 100 µM (inactive) | > 100 µM (inactive) |  | > 100 µM (inactive) | > 100 µM (inactive) | > 100 µM (inactive) | 87.1 µM (inactive) | > 100 µM (inactive) | > 100 µM (inactive) | > 100 µM (inactive) | > 100 µM (inactive) | > 100 µM (inactive) | > 100 µM (inactive) | > 100 µM (inactive) | > 100 µM (inactive) | 
4 | CC1OC(OC2C(CO)OC(O[C@H]3CC[C@@]4(C)C(=CC[C@H]5[C@@H]6C[C@@H]7O[C@](O)(CC[C@@H](C)COC8OC(CO)C(O)C(O)C8O)[C@@H](C)[C@@H]7[C@@]6(C)CC[C@@H]54)C3)C(OC3OC(C)C(O)C(O)C3O)C2O)C(O)C(O)C1O (some centres not stated) | 3.23 µM (inactive) | 1.91 µM (inactive) | 2.07 µM (inactive) | 2.07 µM (inactive) | 3.55 µM (inactive) | 2.16 µM (inactive) | 2.24 µM (inactive) | > 100 µM (inactive) | 2.08 µM (inactive) |  | 2.84 µM (inactive) | 4.05 µM (inactive) | 1.57 µM (inactive) | 2.2 µM (inactive) | 1.56 µM (inactive) | 1.89 µM (inactive) | 2.13 µM (inactive) | 2.3 µM (inactive) | 
5 | CNC(=S)c1nnsc1N | > 100 µM (inactive) | > 100 µM (inactive) | > 100 µM (inactive) | 9.14 µM (inactive) | > 100 µM (inactive) | > 100 µM (inactive) | 11.6 µM (inactive) | 87.3 µM (inactive) | 66.4 µM (inactive) | > 100 µM (inactive) | > 100 µM (inactive) | 2.03 µM (inactive) | > 100 µM (inactive) | > 100 µM (inactive) | > 100 µM (inactive) | > 100 µM (inactive) | 0.0115 µM (active) | > 100 µM (inactive) | 
6 | CC(=O)N(CCc1ccccc1)C(C#N)c1ccccc1 (configuration not stated) | > 100 µM (inactive) | > 100 µM (inactive) | > 100 µM (inactive) | > 100 µM (inactive) | > 100 µM (inactive) | > 100 µM (inactive) | > 100 µM (inactive) | 91.2 µM (inactive) | > 100 µM (inactive) | > 100 µM (inactive) | > 100 µM (inactive) | > 100 µM (inactive) | > 100 µM (inactive) | > 100 µM (inactive) | > 100 µM (inactive) | > 100 µM (inactive) | > 100 µM (inactive) | > 100 µM (inactive) | 
7 | COC(=O)C(C(=O)C(=O)Nc1ccc(OC)cc1[N+](=O)[O-])c1nc2cc(C)c(C)cc2nc1O (configuration not stated) | > 100 µM (inactive) | > 100 µM (inactive) | > 100 µM (inactive) | > 100 µM (inactive) | > 100 µM (inactive) | > 100 µM (inactive) |  | > 100 µM (inactive) | > 100 µM (inactive) | > 100 µM (inactive) | > 100 µM (inactive) |  | > 100 µM (inactive) | > 100 µM (inactive) | > 100 µM (inactive) | > 100 µM (inactive) | > 100 µM (inactive) | > 100 µM (inactive) | > 100 µM (inactive)
